What all share (test): NCI tumour cell line growth inhibition, 48 h
In experiment [1] the test system is A549 NSCLC.
Experiment [2] deals with CAKI-1 renal.
The subject of experiment [3] is HCT-116 colon.
The test system of experiment [4] is HL-60(TB) leukemia.
The subject of experiment [5] is NCI-H226 lung.
Experiment [6] has as its system NCI-H522 lung.
Experiment [7] concerns OVCAR-5 ovarian.
For experiment [8], the system named is SK-MEL-2 melanoma.
The test system of experiment [9] is SW-620 colon.
The subject of experiment [10] is T-47D breast.

Each structure is given as a SMILES string.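 Cultured in 96-well plates, cells were exposed to test compound for 48 hours across five concentrations. GI50 marks 50% less growth. Definition used: TGI = concentration required for complete inhibition of growth.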 A value given as a limit tells only on which side of the number the result lay.

For `CCOC(=O)/C=C/c1c(C)[nH]c(=O)[nH]c1=O`, the TGI was > 250 µM in experiment [1]; > 234 µM in experiment [2]; > 250 µM in experiment [3]; > 250 µM in experiment [4]; > 250 µM in experiment [5]; > 250 µM in [6]. The TGI in experiment [7], in experiment [8] and in experiment [9] was > 250 µM each time.

For the compound `O=C(NN1C(=O)C(Cl)C1c1cccc([N+](=O)[O-])c1)c1ccccc1O` (stereo not drawn), the TGI in experiment [1], in experiment [3], in experiment [4], in experiment [6], in experiment [7] and in [8] was > 100 µM each time. In addition, the TGI in experiment [9] is > 100 µM.

With `c1ccc2c(c1)NCc1cc3ccccc3nc1O2`, the TGI in [1], in experiment [2], in experiment [3], in [4], in experiment [5] and in experiment [6] was > 100 µM in each case. The TGI in experiment [7], in [8] and in experiment [9] was > 100 µM in each case.

Take `N#[N+]c1c([O-])c2ccccc2c2ccccc12`: the TGI in experiment [1] was > 100 µM; in [2], > 100 µM; in [3] it was > 100 µM; in experiment [4] it was > 100 µM; in experiment [5], 89.3 µM; in [6], 85 µM. Moreover, the TGI was > 100 µM in experiment [7], 93.4 µM in experiment [8], > 100 µM in experiment [9] and > 100 µM in [10].

Turning to `O=C1C(CO)=C[C@H](O)[C@H]2O[C@@H]12`, the TGI in experiment [1] was > 394 µM; in experiment [2], 514 µM; in experiment [3], 225 µM; in experiment [4] it was 253 µM; in experiment [5] it was 371 µM; in experiment [6] it was 164 µM. The TGI in experiment [7] came to 346 µM; in experiment [8], 345 µM; in [9], 284 µM.

Consider `Cc1cn(-c2cccc(NC(=O)c3ccc(C)c(Nc4nccc(-c5cccnc5)n4)c3)c2)cn1`, for which the GI50 in experiment [1] was 1550 nM; in experiment [2] it was 1600 nM; in experiment [3], 1640 nM; in experiment [4], 4610 nM; in [5], 1590 nM; in [6] it was 1440 nM. The GI50 was 1880 nM in experiment [7], 2580 nM in [8], 2250 nM in experiment [9] and 1420 nM in experiment [10]. Besides, the TGI in experiment [1] stood at 3.34 µM; in [2], 3.05 µM; in experiment [3] it was 3.05 µM; in experiment [4], 19.8 µM; in [5], 3.32 µM; in experiment [6], 3.07 µM. The TGI stood at 3.68 µM in experiment [7], 7.83 µM in experiment [8], 4.76 µM in experiment [9] and 9.6 µM in [10].

With `C/C(=N\NC(=S)N1CCC(N2CCCCC2)CC1)c1ccccn1`, the TGI in [1] was 10.3 µM; in [2] it was 5.87 µM; in [3], 7.02 µM; in experiment [4] it was > 21 µM; in [6], 0.646 µM; in experiment [7], 10.2 µM. In addition, the TGI in experiment [8] was > 100 µM; in experiment [9] it was 12.2 µM; in [10], 7.01 µM.

`O=c1nc2ccc([N+](=O)[O-])cc2[n+]([O-])[nH]1`: the TGI in experiment [1], in experiment [2], in experiment [3], in [4], in experiment [5] and in experiment [6] was > 100 µM in each case. The TGI in [7], in experiment [8], in experiment [9] and in experiment [10] was > 100 µM throughout.

As for `CCOC(=O)NC(Nc1cc(Cl)ccc1OC)(C(F)(F)F)C(F)(F)F`, the TGI in experiment [1], in experiment [2], in [3], in experiment [4], in experiment [5] and in experiment [6] was > 100 µM throughout. Besides, the TGI in [7], in experiment [8], in experiment [9] and in experiment [10] was > 100 µM in each case.

As for `COc1cc(-c2ccc(N=Nc3ccc4c(S(=O)(=O)O)cc(S(=O)(=O)O)c(N)c4c3O)c(OC)c2)ccc1N=Nc1ccc2c(S(=O)(=O)O)cc(S(=O)(=O)O)c(N)c2c1O`, the TGI in experiment [1] is > 100 µM; in experiment [3] it was > 100 µM; in experiment [4], > 62.6 µM; in experiment [5], > 100 µM; in experiment [6], > 100 µM; in [7] it was > 100 µM. Further, the TGI in [8] and in [9] was > 100 µM each time.

`COc1ccc(C2=[S+]C(c3ccccc3)(c3ccccc3)c3ccccc32)cc1`: the TGI in experiment [1] was > 100 µM; in [2] it was > 100 µM; in experiment [3], 24.3 µM; in experiment [4] it was 51.1 µM; in experiment [5], 31.3 µM; in [6], 79.8 µM. Besides, the TGI in experiment [7] is 49.5 µM; in [8], 33.3 µM; in [9] it was > 100 µM; in [10] it was 84.3 µM.

Consider `COc1cccc2c1C(=O)c1c(O)c3c(c(O)c1C2=O)C[C@@](O)(C(=O)COC(=O)c1ccccc1)C[C@@H]3OC1CC(N)C(O)C(C)O1` (stereo partly drawn), for which the GI50 was 701 nM in experiment [2]; 67.9 nM in experiment [4]; 400 nM in [7]; 563 nM in experiment [8]; 44.8 nM in experiment [9]. Moreover, the TGI in [2] is 2.11 µM; in [4], 0.69 µM; in experiment [7], 1.64 µM; in experiment [8], 1.99 µM; in experiment [9] it was 0.253 µM.

With `c1ccc2c(c1)c1ccccc1n2Cn1c2ccccc2c2ccccc21`, the TGI in experiment [1], in experiment [2], in experiment [4], in experiment [5], in experiment [6] and in [7] was > 100 µM each time. In addition, the TGI in experiment [8], in experiment [9] and in [10] was > 100 µM in each case.

`C/C(=N\NC(=O)c1ccc(Cl)cc1)c1nc2ncccc2[nH]1`: the TGI in [1] is > 100 µM; in experiment [2], > 100 µM; in experiment [3], > 100 µM; in experiment [4], 70.2 µM; in experiment [6] it was 58.3 µM; in experiment [7] it was > 100 µM. Further, the TGI in [8], in experiment [9] and in experiment [10] was > 100 µM each time.

Consider `O=C(N/N=C\c1cccc2ccccc12)Nc1ccccc1`, for which the TGI in experiment [2], in experiment [3], in experiment [5], in experiment [7], in experiment [8] and in [9] was > 100 µM in each case. The TGI in [10] was > 100 µM.

Consider `O=c1[nH]c(SCc2cccc([N+](=O)[O-])c2)nc2nc[nH]c12`, for which the TGI in [1], in [2], in experiment [3], in experiment [4], in experiment [5] and in experiment [6] was > 100 µM throughout. Besides, the TGI in [7], in experiment [8], in experiment [9] and in experiment [10] was > 100 µM each time.

Regarding `O=c1oc(-c2ccc(O)cc2)cc2cc(O)ccc12`, the TGI in experiment [1] is > 100 µM; in experiment [2], > 100 µM; in experiment [3], 39 µM; in experiment [4] it was 48.6 µM; in experiment [6], > 100 µM; in experiment [7], > 100 µM. Besides, the TGI was > 100 µM in experiment [8], 87.8 µM in experiment [9] and 49 µM in experiment [10].

In the case of `Cc1ccc(Cl)cc1N=NC(=O)NNc1cc(Cl)ccc1C`, the TGI in [2] is 45.1 µM; in experiment [3], 51.6 µM; in [4], > 100 µM; in [5], 43.1 µM; in experiment [6] it was 27.6 µM; in [7], 32.7 µM. The TGI in experiment [8] was 32.8 µM; in experiment [10], > 100 µM.

The values are drawn from PubChem BioAssay (NCI).
